Measured values published in PMC7417534, “Cytochrome P450 inhibition potential and initial genotoxic evaluation of 14-O-[(4,6-diaminopyrimidine-2-yl)thioacetyl] mutilin” (Scientific Reports, 2020).

What was measured:
[1] = MTT cytotoxicity assay on Hep G2 cells; format: cell-based, human; conditions: human, DPTM 4.98 mM, read-out: cell viability
Protocol: (§1) Intrinsic toxicity of DPTM was conducted as described in the literature[36]–[38] with some modifications. […] After proliferating to logarithmic growth phase at 37 °C under 5% CO2, cells were seeded to a new 96-well plate with a density of […] and cultured for 24 h at the same condition. The media were replaced with 100 μL of serial dilutions of DPTM (10 mg DPTM was dissolved in 1 mL 1% DMSO to a solution and then diluted two-fold with distilled water to provide 19.91, 9.96, 4.98, 2.49, 1.25, 0.62, 0.31, 0.16 and 0.08 mM serial dilutions). The blank group only used 1% DMSO to replace the media. The obtained mixture was incubated for 24 h. After that, all media in cells were removed and 20 μL of MTT reagent was added for an additional 4 h. Then, supernatant fraction was removed and 100 μL dimethyl sulfoxide (DMSO) was added, followed by incubation at 37 °C for 15 min. The absorbance of each well was determined by a spectrophotometer at dual wavelengths of 570 and 279 nm for the background. The viability percentage was calculated by the following formula: cell viability % = (ODsample − ODblank/ODcontrol − ODblank) × 100. A sigmoid-shaped curve was fitted to the data, and the IC50 was calculated by fitting the Hill equation to the data with nonlinear regression (least-squares best fit modelling) using GraphPad Prism 4 (GraphPad Software Inc., San Diego, USA). […]

Hep G2 cells = test: MTT cytotoxicity assay on Hep G2 cells; format: cell-based, human; conditions: Homo sapiens, HepG2, 24 h incubation, read-out: IC50 value, cell viability (MTT)
Protocol: as §1

CYP2C11 = target: T1, CYP2C11 (Rattus norvegicus, UniProt P08683); test: Cocktail CYP inhibition in rat liver microsomes, CYP2C11 (tolbutamide); format: in vitro ADME; conditions: cocktail method, read-out: IC50 values, CYP2C11 in RLMs
T1 construct: containing 100 μL RLMs or HLMs; tissue Research Institute for Liver Diseases (Shanghai) Co., Ltd; host or cells: male SD rat liver microsomes
T1 sequence (P08683 whole entry): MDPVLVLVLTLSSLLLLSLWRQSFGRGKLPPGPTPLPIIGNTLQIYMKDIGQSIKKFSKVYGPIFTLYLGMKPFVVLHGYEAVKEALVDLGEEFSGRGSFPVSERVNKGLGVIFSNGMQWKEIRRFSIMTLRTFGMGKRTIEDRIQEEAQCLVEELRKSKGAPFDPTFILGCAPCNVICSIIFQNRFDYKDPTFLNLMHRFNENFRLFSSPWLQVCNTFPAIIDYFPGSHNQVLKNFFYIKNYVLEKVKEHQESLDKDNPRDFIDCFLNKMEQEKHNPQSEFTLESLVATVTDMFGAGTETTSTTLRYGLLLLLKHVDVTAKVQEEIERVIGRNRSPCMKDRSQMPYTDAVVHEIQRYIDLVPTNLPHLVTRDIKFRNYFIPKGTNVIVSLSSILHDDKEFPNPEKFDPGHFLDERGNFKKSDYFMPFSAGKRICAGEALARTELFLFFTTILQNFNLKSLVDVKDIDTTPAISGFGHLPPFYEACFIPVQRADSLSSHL
Protocol: (§2) We used the cocktail method to study the inhibition activities of DPTM against CYP enzymes in RLMs and HLMs with slight modification. DPTM (250 μmol) was dissolved in 1.25 mL methanol to a solution and then diluted with methanol and water to 2, 10, 20, 100, 200, 400, 1,000 and 2000 μM, respectively. The obtained serial dilutions (10 μL) were added to the incubation mixtures (200 μL total volume), containing 100 μL RLMs or HLMs (final concentration was 5 μg/μL, respectively), 10 μL glucose-6-phosphate (final concentration was 1 mM), 10 μL glucose-6-phosphate dehydrogenase (final concentration was 0.1 U/L), 20 μL potassium phosphate buffer (final concentration was 0.01 M) and 20 μL MgCl2 (final concentration was 2 mM), to give the final concentrations were 0.1, 0.5, 1, 5 10, 20, 50, and 100 μM, respectively. For the groups that in the absence of DPTM, 10 μL methanol (1%) replaced the DPTM and was added to the incubation mixtures. […] The final concentration of methanol in all the incubation mixtures, including the blank group, was […]. […] The determined metabolic substrates were used for calculating the relative enzyme activity (Erel) by the following formula: Erel (%) = Ci(n)/Ci(0) × 100%, in which Ci(n) was the determined metabolic substrates in the presence of varying concentrations of DPTM and Ci(0) was the determined metabolic substrates in the absence of DPTM. […]

CYP1A2 = target: T2, CYP1A2 (Homo sapiens, UniProt P05177); test: Cocktail CYP inhibition in human liver microsomes, CYP1A2 (phenacetin); format: in vitro ADME; conditions: cocktail method, read-out: IC50 values, CYP1A2 in HLMs
T2 construct: containing 100 μL RLMs or HLMs; tissue Research Institute for Liver Diseases (Shanghai) Co., Ltd; host or cells: pooled human liver microsomes
T2 sequence (P05177 whole entry): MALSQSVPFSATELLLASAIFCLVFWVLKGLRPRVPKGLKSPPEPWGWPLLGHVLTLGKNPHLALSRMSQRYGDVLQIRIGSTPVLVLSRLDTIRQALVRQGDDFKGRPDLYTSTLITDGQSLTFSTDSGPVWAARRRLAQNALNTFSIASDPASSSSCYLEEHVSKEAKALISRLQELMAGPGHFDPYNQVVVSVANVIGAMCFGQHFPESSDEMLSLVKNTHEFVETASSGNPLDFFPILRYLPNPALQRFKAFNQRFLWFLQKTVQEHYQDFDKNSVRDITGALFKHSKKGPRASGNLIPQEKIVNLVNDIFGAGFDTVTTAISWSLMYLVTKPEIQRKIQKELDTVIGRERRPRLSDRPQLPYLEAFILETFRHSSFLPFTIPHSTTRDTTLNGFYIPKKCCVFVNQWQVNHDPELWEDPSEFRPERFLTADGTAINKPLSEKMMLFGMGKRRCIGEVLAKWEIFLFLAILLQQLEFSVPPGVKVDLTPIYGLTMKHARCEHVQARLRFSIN
Protocol: as §2

S. typhimurium TA97 = test: Ames test, strain TA97; format: cell-based, Salmonella typhimurium; conditions: − S9
Source text: (§3) S. typhimurium strains TA97, TA98, TA100, TA102 and TA1535 were stored and maintained as provided in the standard protocol. Each of the strains was checked for their genetic integrity prior to the experiment, and tested for biotin dependence, histidine dependence, biotin and histidine dependence, rfa marker (crystal violet) and presence of the plasmid pKM101 (ampicillin resistance) or pAQ1 (tetracycline resistance). Different strains were used to identify different types of mutations.
(§4) The test was carried out at five different concentrations of DPTM. […] Then 1 mL solution was diluted with distilled water by two fold. […] The negative control used in this experiment was 1 mL DMSO which was directly incorporated into 9 mL melted top agar.
(§5) The Ames test of DPTM was conducted as described in the literatures[42],[43] with some modifications. Briefly, 1 mL of strain was inoculated into 5 mL of nutrient broth, followed by incubating overnight at 37 °C. The mixture comprised respective strains, drug, negative and positive controls with the S9 for testing in the presence of metabolic activation system. For testing without S9, 1 × phosphate buffer saline (PBS, pH 7.4) replaced the S9 mix. The obtained mixtures were added into the tube, mixed well and incubated at 37 °C for 20 min. Then, the top agar was melted and 2 mL of this melted top agar was added to each tube and gently mixed. […] The results were expressed as the number of revertant colonies per plate. The experiments were performed in triplicate.

S. typhimurium TA98 = test: Ames test, strain TA98; format: cell-based, Salmonella typhimurium; conditions: − S9
Source text: as §3, §4, §5

C=CC1(C)CC(OC(=O)CSc2nc(N)cc(N)n2)C2(C)C(C)CCC3(CCC(=O)C32)C(C)C1O (stereo not shown) [DPTM, 14-O-[(4,6-Diaminopyrimidine-2-yl)thioacetyl] mutilin]
viability at 24 h, 4.98 mM [1]: 79%
IC50 (Hep G2 cells): 10 ± 2 mM
IC50 (CYP2C11): > 0.1 mM
IC50 (CYP1A2): > 0.1 mM
revertant colonies per plate, TA97 (S. typhimurium TA97; dose 0.50 μmol/plate): 165 ± 14 CFU
revertant colonies per plate, TA97 (S. typhimurium TA97; dose 1.00 μmol/plate): 171 ± 8 CFU
revertant colonies per plate, TA97 (S. typhimurium TA97; dose 1.99 μmol/plate): 174 ± 17 CFU
revertant colonies per plate, TA97 (S. typhimurium TA97; dose 3.98 μmol/plate): 169 ± 14 CFU
revertant colonies per plate, TA98 (S. typhimurium TA98; dose 0.25 μmol/plate): 33 ± 6 CFU
revertant colonies per plate, TA98 (S. typhimurium TA98; dose 0.50 μmol/plate): 30 ± 10 CFU
revertant colonies per plate, TA98 (S. typhimurium TA98; dose 1.00 μmol/plate): 27 ± 8 CFU
revertant colonies per plate, TA98 (S. typhimurium TA98; dose 1.99 μmol/plate): 32 ± 8 CFU
revertant colonies per plate, TA98 (S. typhimurium TA98; dose 3.98 μmol/plate): 28 ± 11 CFU
